Legend:
cytosolic AtPGI [1] = target: T1, cytosolic AtPGI (Arabidopsis thaliana, UniProt P34795); test: coupled spectrophotometric assay; assay type: biochemical
T1 sequence (P34795 1-560): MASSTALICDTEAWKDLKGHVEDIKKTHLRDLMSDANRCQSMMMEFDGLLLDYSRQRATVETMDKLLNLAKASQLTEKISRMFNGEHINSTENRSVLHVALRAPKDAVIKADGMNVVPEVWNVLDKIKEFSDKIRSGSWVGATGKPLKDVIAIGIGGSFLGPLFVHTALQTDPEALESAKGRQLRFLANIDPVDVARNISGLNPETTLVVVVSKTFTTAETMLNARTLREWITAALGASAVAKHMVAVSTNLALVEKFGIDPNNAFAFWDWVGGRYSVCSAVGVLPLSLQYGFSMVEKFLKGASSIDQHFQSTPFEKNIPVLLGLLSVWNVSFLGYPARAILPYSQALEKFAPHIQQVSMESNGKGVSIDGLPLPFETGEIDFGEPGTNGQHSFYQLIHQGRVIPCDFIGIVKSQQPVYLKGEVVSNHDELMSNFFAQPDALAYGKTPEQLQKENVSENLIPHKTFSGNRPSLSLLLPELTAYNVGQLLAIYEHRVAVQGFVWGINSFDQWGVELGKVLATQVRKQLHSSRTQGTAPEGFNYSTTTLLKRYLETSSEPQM

plastidic AtPGI [2] = target: T2, plastidic AtPGI (Arabidopsis thaliana, UniProt Q8H103); test: coupled spectrophotometric assay; assay type: biochemical
T2 sequence (Q8H103 49-613): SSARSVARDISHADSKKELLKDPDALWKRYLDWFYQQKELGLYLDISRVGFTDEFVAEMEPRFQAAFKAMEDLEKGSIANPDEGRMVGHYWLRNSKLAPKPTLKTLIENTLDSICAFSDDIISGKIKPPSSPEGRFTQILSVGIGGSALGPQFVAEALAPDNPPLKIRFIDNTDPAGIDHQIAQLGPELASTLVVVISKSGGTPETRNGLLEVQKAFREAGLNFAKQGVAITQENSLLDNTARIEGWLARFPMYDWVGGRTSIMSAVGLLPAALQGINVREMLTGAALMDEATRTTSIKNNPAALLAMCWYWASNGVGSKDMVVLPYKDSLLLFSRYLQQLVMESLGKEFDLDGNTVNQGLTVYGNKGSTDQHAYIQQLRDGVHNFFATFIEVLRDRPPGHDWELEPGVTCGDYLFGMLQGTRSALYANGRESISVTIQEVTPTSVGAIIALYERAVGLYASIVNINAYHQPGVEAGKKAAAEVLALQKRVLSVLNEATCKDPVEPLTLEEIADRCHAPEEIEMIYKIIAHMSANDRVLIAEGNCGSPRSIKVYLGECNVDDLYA

cytosolic AtPGI [3] = target: T1, cytosolic AtPGI; test: biochemical
AtG6PDH3 [4] = target: T3, AtG6PDH3 (Arabidopsis thaliana, UniProt Q8L743); test: spectrophotometric NADPH formation assay; assay type: biochemical
T3 sequence (Q8L743 1-599 limits assumed): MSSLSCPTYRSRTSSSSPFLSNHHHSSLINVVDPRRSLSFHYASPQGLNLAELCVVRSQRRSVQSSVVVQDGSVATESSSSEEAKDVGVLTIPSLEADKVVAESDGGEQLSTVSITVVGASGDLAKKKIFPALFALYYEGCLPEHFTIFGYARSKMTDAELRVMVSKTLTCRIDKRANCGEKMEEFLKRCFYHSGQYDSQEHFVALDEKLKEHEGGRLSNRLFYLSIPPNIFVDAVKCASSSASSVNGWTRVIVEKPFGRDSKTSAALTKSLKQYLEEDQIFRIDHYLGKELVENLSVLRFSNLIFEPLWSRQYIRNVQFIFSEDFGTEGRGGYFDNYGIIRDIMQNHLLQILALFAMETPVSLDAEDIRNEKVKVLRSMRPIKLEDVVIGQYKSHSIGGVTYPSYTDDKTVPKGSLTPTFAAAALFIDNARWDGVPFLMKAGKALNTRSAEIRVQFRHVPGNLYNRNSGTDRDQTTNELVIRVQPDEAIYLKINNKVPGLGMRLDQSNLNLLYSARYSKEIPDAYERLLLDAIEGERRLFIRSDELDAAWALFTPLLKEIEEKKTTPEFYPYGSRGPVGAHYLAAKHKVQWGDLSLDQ

AtG6PDH1 [5] = target: T4, AtG6PDH1 (Arabidopsis thaliana, UniProt Q43727); test: spectrophotometric NADPH formation assay; assay type: biochemical
T4 sequence (Q43727 1-576 limits assumed): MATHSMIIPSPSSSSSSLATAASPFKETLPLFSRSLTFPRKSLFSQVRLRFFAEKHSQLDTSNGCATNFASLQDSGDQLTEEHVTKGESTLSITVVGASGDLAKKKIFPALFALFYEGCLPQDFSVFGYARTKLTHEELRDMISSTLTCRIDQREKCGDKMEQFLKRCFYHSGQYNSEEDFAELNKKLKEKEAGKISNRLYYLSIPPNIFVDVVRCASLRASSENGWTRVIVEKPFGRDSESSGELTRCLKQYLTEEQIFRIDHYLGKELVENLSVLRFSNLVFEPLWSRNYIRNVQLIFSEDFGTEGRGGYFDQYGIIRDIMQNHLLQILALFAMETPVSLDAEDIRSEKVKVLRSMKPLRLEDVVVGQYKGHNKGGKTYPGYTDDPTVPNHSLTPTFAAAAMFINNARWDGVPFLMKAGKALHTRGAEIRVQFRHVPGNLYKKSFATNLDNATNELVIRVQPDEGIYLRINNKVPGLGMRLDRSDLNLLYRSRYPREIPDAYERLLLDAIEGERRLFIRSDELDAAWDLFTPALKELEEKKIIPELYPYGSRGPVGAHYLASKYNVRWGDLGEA

AtG6PDH2 [6] = target: T5, AtG6PDH2 (Arabidopsis thaliana, UniProt Q9FY99); test: spectrophotometric NADPH formation assay; assay type: biochemical
T5 sequence (Q9FY99 1-596 limits assumed): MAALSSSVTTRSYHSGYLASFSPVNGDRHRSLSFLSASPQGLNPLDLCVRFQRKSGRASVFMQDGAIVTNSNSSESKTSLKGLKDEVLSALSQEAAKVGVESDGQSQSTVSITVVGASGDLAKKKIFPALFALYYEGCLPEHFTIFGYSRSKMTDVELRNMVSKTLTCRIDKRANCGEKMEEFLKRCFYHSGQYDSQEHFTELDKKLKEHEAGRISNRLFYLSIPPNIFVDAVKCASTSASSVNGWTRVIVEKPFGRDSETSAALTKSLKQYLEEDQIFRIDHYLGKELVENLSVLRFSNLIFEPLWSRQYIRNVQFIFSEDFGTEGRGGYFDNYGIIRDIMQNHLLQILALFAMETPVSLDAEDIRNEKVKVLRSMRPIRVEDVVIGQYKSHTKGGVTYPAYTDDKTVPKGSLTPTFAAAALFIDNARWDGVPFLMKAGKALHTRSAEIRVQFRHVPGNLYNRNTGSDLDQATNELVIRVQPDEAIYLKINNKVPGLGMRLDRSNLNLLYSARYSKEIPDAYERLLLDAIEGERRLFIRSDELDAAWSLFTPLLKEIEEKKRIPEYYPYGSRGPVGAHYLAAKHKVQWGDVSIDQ

plastidic AtPGI [7] = target: T2, plastidic AtPGI; test: biochemical
AtG6PDH1 [8] = target: T4, AtG6PDH1; test: spectrophotometric NADPH formation assay; assay type: biochemical; details: substrate inhibition; 0.6 mM NADP+; 150 mM Hepes pH 7.2
AtG6PDH3 [9] = target: T3, AtG6PDH3; test: spectrophotometric NADPH formation assay; assay type: biochemical; details: substrate inhibition; 0.6 mM NADP+; 150 mM Hepes pH 7.2
AtG6PDH2 [10] = target: T5, AtG6PDH2; test: spectrophotometric NADPH formation assay; assay type: biochemical; details: substrate inhibition; 0.6 mM NADP+; 150 mM Hepes pH 7.2
purified protein = substrate: NC(=O)c1ccc[n+]([C@@H]2O[C@H](COP(=O)(O)OP(=O)(O)OC[C@H]3O[C@@H](n4cnc5c(N)ncnc54)[C@H](OP(=O)(O)O)[C@@H]3O)[C@@H](O)[C@H]2O)c1; test: purified protein; details: 150 mM Hepes pH 7.2, varied: cofactor

O=C(O)[C@H](O)[C@@H](O)[C@H](O)[C@H](O)COP(=O)(O)O [6-phosphogluconic acid]
Ki (cytosolic AtPGI [1]): 106 µM
Ki (plastidic AtPGI [2]): 31 µM
Ki (cytosolic AtPGI [3]): 44 µM

NC(=O)C1=CN([C@@H]2O[C@H](COP(=O)(O)OP(=O)(O)OC[C@H]3O[C@@H](n4cnc5c(N)ncnc54)[C@H](OP(=O)(O)O)[C@@H]3O)[C@@H](O)[C@H]2O)C=CC1 [NADPH]
Ki (AtG6PDH3 [4]): 112 µM
Ki (AtG6PDH1 [5]): 59 µM
Ki (AtG6PDH2 [6]): 0.9 µM

O=C[C@H](O)[C@H](O)COP(=O)(O)O [erythrose 4-phosphate]
Ki (cytosolic AtPGI [1]): 1.5 µM
Ki (plastidic AtPGI [2]): 2.3 µM
Ki (plastidic AtPGI [7]): 6 µM
Ki (cytosolic AtPGI [3]): 3.7 µM

O=P(O)(O)OC[C@H]1OC(O)[C@H](O)[C@@H](O)[C@@H]1O (stereo partly shown) [glucose 6-phosphate]
G6P Ki (AtG6PDH1 [8]): 18900 µM
G6P Ki (AtG6PDH3 [9]): 37000 µM
G6P Ki (AtG6PDH2 [10]): 30000 µM

B1: AtG6PDH3 (Arabidopsis thaliana) (protein)
chain: MSSLSCPTYRSRTSSSSPFLSNHHHSSLINVVDPRRSLSFHYASPQGLNLAELCVVRSQRRSVQSSVVVQDGSVATESSSSEEAKDVGVLTIPSLEADKVVAESDGGEQLSTVSITVVGASGDLAKKKIFPALFALYYEGCLPEHFTIFGYARSKMTDAELRVMVSKTLTCRIDKRANCGEKMEEFLKRCFYHSGQYDSQEHFVALDEKLKEHEGGRLSNRLFYLSIPPNIFVDAVKCASSSASSVNGWTRVIVEKPFGRDSKTSAALTKSLKQYLEEDQIFRIDHYLGKELVENLSVLRFSNLIFEPLWSRQYIRNVQFIFSEDFGTEGRGGYFDNYGIIRDIMQNHLLQILALFAMETPVSLDAEDIRNEKVKVLRSMRPIKLEDVVIGQYKSHSIGGVTYPSYTDDKTVPKGSLTPTFAAAALFIDNARWDGVPFLMKAGKALNTRSAEIRVQFRHVPGNLYNRNSGTDRDQTTNELVIRVQPDEAIYLKINNKVPGLGMRLDQSNLNLLYSARYSKEIPDAYERLLLDAIEGERRLFIRSDELDAAWALFTPLLKEIEEKKTTPEFYPYGSRGPVGAHYLAAKHKVQWGDLSLDQ
Km (purified protein; 7.6 mM G6P): 0.6 µM
kcat (purified protein; 7.6 mM G6P): 14.6 s⁻¹

B2: AtG6PDH1 (Arabidopsis thaliana) (protein)
chain: MATHSMIIPSPSSSSSSLATAASPFKETLPLFSRSLTFPRKSLFSQVRLRFFAEKHSQLDTSNGCATNFASLQDSGDQLTEEHVTKGESTLSITVVGASGDLAKKKIFPALFALFYEGCLPQDFSVFGYARTKLTHEELRDMISSTLTCRIDQREKCGDKMEQFLKRCFYHSGQYNSEEDFAELNKKLKEKEAGKISNRLYYLSIPPNIFVDVVRCASLRASSENGWTRVIVEKPFGRDSESSGELTRCLKQYLTEEQIFRIDHYLGKELVENLSVLRFSNLVFEPLWSRNYIRNVQLIFSEDFGTEGRGGYFDQYGIIRDIMQNHLLQILALFAMETPVSLDAEDIRSEKVKVLRSMKPLRLEDVVVGQYKGHNKGGKTYPGYTDDPTVPNHSLTPTFAAAAMFINNARWDGVPFLMKAGKALHTRGAEIRVQFRHVPGNLYKKSFATNLDNATNELVIRVQPDEGIYLRINNKVPGLGMRLDRSDLNLLYRSRYPREIPDAYERLLLDAIEGERRLFIRSDELDAAWDLFTPALKELEEKKIIPELYPYGSRGPVGAHYLASKYNVRWGDLGEA
Km (purified protein; 7.6 mM G6P): 0.7 µM
kcat (purified protein; 7.6 mM G6P): 57.0 s⁻¹

B3: AtG6PDH2 (Arabidopsis thaliana) (protein)
chain: MAALSSSVTTRSYHSGYLASFSPVNGDRHRSLSFLSASPQGLNPLDLCVRFQRKSGRASVFMQDGAIVTNSNSSESKTSLKGLKDEVLSALSQEAAKVGVESDGQSQSTVSITVVGASGDLAKKKIFPALFALYYEGCLPEHFTIFGYSRSKMTDVELRNMVSKTLTCRIDKRANCGEKMEEFLKRCFYHSGQYDSQEHFTELDKKLKEHEAGRISNRLFYLSIPPNIFVDAVKCASTSASSVNGWTRVIVEKPFGRDSETSAALTKSLKQYLEEDQIFRIDHYLGKELVENLSVLRFSNLIFEPLWSRQYIRNVQFIFSEDFGTEGRGGYFDNYGIIRDIMQNHLLQILALFAMETPVSLDAEDIRNEKVKVLRSMRPIRVEDVVIGQYKSHTKGGVTYPAYTDDKTVPKGSLTPTFAAAALFIDNARWDGVPFLMKAGKALHTRSAEIRVQFRHVPGNLYNRNTGSDLDQATNELVIRVQPDEAIYLKINNKVPGLGMRLDRSNLNLLYSARYSKEIPDAYERLLLDAIEGERRLFIRSDELDAAWSLFTPLLKEIEEKKRIPEYYPYGSRGPVGAHYLAAKHKVQWGDVSIDQ
Km (purified protein; 15.4 mM G6P): 1.3 µM
kcat (purified protein; 15.4 mM G6P): 39.4 s⁻¹

— publication doi:10.1101/442434v2 (biorxiv, 2018)
